According to ChEMBL document CHEMBL4613222 (Bioorg Med Chem, 2020):
Calls of active or inactive are those of the source. The calls are words filed in the database; no cut-off is given here.

Columns and labels:
[1] = tested on: HCT-116; assay: Effect on CCND1 gene expression in human HCT116 cells at 9.5 uM in presence of 2 Gy irradiation by RT-PCR analysis; type: functional, cell-based
[2] = tested on: HCT-116; assay: Down regulation of CCND1 gene expression in human HCT116 cells at 9.5 uM in presence of 2 Gy irradiation by RT-PCR analysis; type: functional, cell-based
[3] = tested on: HCT-116; assay: Down regulation of NFKappaB1 gene expression in human HCT116 cells at 9.5 uM by RT-PCR analysis relative to control; type: functional
[4] = tested on: HCT-116; assay: Radiosensitizer activity in human HCT116 cells assessed as reduction in cell survival at 4.75 uM incubated for 48 hrs under 2 to 6 Gy irradiation and measured after 7 days by crystal violet staining based by clonogenic assay; type: functional
[5] = tested on: HCT-116; assay: Down regulation of NFKappaB1 gene expression in human HCT116 cells at 35 uM under 2 Gy irradiation by RT-PCR analysis; type: functional, cell-based
[6] = tested on: HCT-116; assay: Antiproliferative activity against human HCT116 cells assessed as reduction in cell viability after 48 hrs by MTT assay; type: functional, cell-based; conditions: HCT-116, 48 h

IC50 [6]: 19 µM
Compound: C[C@H]1[C@H](C)CC[C@]2(C(=O)O)CC[C@]3(C)C(=CC[C@@H]4[C@@]5(C)CC[C@H](O)C(C)(C)[C@@H]5CC[C@]43C)[C@H]12 [URSOLIC ACID]
Activity [1]: inactive
Activity [2]: Active
fold change (FC) [3]: -7.05
Activity [4]: Active
Activity [5]: Active
